Results on five molecules are retold here after ChEMBL document CHEMBL3046917, “Antimicrobial evaluation of 4-methylsulfanyl benzylidene/3-hydroxy benzylidene hydrazides and QSAR studies” (2012).

For orientation: MBC means the lowest tested concentration that kills the bacteria rather than only halting them. Read a high MBC as less potent killing. Broadly, the MFC is the smallest concentration meeting the test's criterion for killing the fungus. High values mean weaker fungicidal potency, low ones greater fungicidal potency.

In brackets after ≈: the same amount, converted by molar mass.

What all share (assay type): functional
Experiment [1] concerns Staphylococcus aureus. The experiment in a line: Bactericidal activity against Staphylococcus aureus MTCC 2901.
The subject of experiment [2] is Escherichia coli. The experiment in a line: Bactericidal activity against Escherichia coli MTCC 1652.
For experiment [3], the system named is Escherichia coli. The experiment in a line: Ratio of MBC to MIC for Escherichia coli MTCC 1652.
Experiment [4] has as its system Bacillus subtilis. The experiment can be described thus: Ratio of MBC to MIC for Bacillus subtilis MTCC 2063.
Experiment [5] concerns Aspergillus niger. The experiment in a line: Fungicidal activity against Aspergillus niger MTCC 8189.
Experiment [6] relates to Escherichia coli. The experiment can be described thus: Bacteriostatic activity against Escherichia coli MTCC 1652 after 24 hr by tube dilution method.
For experiment [7], the system named is Candida albicans. The experiment can be described thus: Fungistatic activity against Candida albicans MTCC 227 after 48 hr by tube dilution method.
The subject of experiment [8] is Staphylococcus aureus. The experiment can be described thus: Bacteriostatic activity against Staphylococcus aureus MTCC 2901 after 24 hr by tube dilution method.
In experiment [9] the test system is Bacillus subtilis. The experiment can be described thus: Bactericidal activity against Bacillus subtilis MTCC 2063.
Experiment [10] relates to Staphylococcus aureus. The experiment in a line: Ratio of MBC to MIC for Staphylococcus aureus MTCC 2901.
Experiment [11] concerns Bacillus subtilis. The experiment in a line: Bacteriostatic activity against Bacillus subtilis MTCC 2063 after 24 hr by tube dilution method.
Experiment [12] deals with Aspergillus niger. The experiment can be described thus: Fungistatic activity against Aspergillus niger MTCC 8189 after 7 days by tube dilution method.
In experiment [13] the test system is Candida albicans. The experiment can be described thus: Fungicidal activity against Candida albicans MTCC 227.
Experiment [14] deals with Candida albicans. The experiment can be described thus: Ratio of MFC to MIC for Candida albicans MTCC 227.
The test system of experiment [15] is Aspergillus niger. The experiment can be described thus: Ratio of MFC to MIC for Aspergillus niger MTCC 8189.

Turning to `C/C=C/C=C/C(=O)N/N=C/c1ccc(SC)cc1`, the MBC is 192 µM (≈ 50 µg/mL) in the experiment on Staphylococcus aureus [1], over 192 µM with Escherichia coli [2] and over 192 µM with Bacillus subtilis [9]. The Ratio in the experiment with Escherichia coli [3], in the experiment with Bacillus subtilis [4], in the experiment with Staphylococcus aureus [10], with Candida albicans [14] and with Aspergillus niger [15] was 3 in each case. Besides, the values for the minimal fungicidal concentration (MFC) against Aspergillus niger [5] and against Candida albicans [13] were 96 µM (≈ 25 µg/mL) and over 192 µM, respectively. Besides, the “-logMIC” value is 1.32 in the experiment with Escherichia coli [6]; 1.32 in the experiment with Candida albicans [7]; 1.02 in the experiment on Staphylococcus aureus [8]; 0.72 in the experiment with Bacillus subtilis [11]; 1.32 in the experiment on Aspergillus niger [12].

For the molecule `CSc1ccc(/C=N/NC(=O)c2ccc(C)cc2)cc1`, the minimum bactericidal concentration (MBC) against Staphylococcus aureus [1] was over 176 µM; in the experiment on Escherichia coli [2], 88 µM (≈ 25 µg/mL); in the experiment on Bacillus subtilis [9], 44 µM (≈ 12.5 µg/mL). Besides, the Ratio in the experiment on Escherichia coli [3], in the experiment with Bacillus subtilis [4], in the experiment on Staphylococcus aureus [10], in the experiment on Candida albicans [14] and in the experiment on Aspergillus niger [15] was 3 throughout. Besides, the MFC against Aspergillus niger [5] and in the experiment with Candida albicans [13] was 88 µM (≈ 25 µg/mL) in each case. Further, the “-logMIC” value with Escherichia coli [6] is given as 1.96; in the experiment on Candida albicans [7] it was 1.96; with Staphylococcus aureus [8], 1.66; with Bacillus subtilis [11] it was 1.96; in the experiment on Aspergillus niger [12], 1.66.

Regarding `CCCCCCCCCCCCCC(=O)N/N=C/c1cccc(O)c1`, the values for the minimum bactericidal concentration (MBC) in the experiment on Staphylococcus aureus [1], with Escherichia coli [2] and against Bacillus subtilis [9] were over 144 µM, over 144 µM and 144 µM (≈ 49.9 µg/mL), respectively. In addition, the Ratio in the experiment with Escherichia coli [3], in the experiment on Bacillus subtilis [4], with Staphylococcus aureus [10], in the experiment with Candida albicans [14] and in the experiment with Aspergillus niger [15] was 3 throughout. For the same molecule, the minimum fungicidal concentration (MFC) in the experiment on Aspergillus niger [5] and in the experiment on Candida albicans [13] was over 144 µM throughout. Besides, the “-logMIC” value with Escherichia coli [6] came to 0.94; in the experiment on Candida albicans [7], 0.54; in the experiment with Staphylococcus aureus [8], 0.94; in the experiment on Bacillus subtilis [11] it was 2.04; in the experiment on Aspergillus niger [12], 1.2.

`C/C=C/C=C/C(=O)N/N=C/c1cccc(O)c1`: the minimum bactericidal concentration (MBC) is over 217 µM against Staphylococcus aureus [1], over 217 µM against Escherichia coli [2] and 217 µM (≈ 50 µg/mL) in the experiment with Bacillus subtilis [9]. The Ratio with Escherichia coli [3], in the experiment with Bacillus subtilis [4], with Staphylococcus aureus [10], with Candida albicans [14] and in the experiment with Aspergillus niger [15] was 3 in each case. For the same molecule, the MFC with Aspergillus niger [5] and in the experiment on Candida albicans [13] was 217 µM (≈ 50 µg/mL) throughout. In addition, the “-logMIC” value came out at 1.27 with Escherichia coli [6]; 1.41 in the experiment with Candida albicans [7]; 0.96 with Staphylococcus aureus [8]; 1.27 in the experiment on Bacillus subtilis [11]; 1.27 in the experiment with Aspergillus niger [12].

Turning to `O=C(N/N=C/c1cccc(O)c1)c1cc([N+](=O)[O-])cc([N+](=O)[O-])c1`, the MBC against Staphylococcus aureus [1], against Escherichia coli [2] and in the experiment with Bacillus subtilis [9] was over 151 µM throughout. Also, the Ratio with Escherichia coli [3], in the experiment on Bacillus subtilis [4], with Staphylococcus aureus [10], in the experiment with Candida albicans [14] and with Aspergillus niger [15] was 3 in each case. Besides, the values for the MFC with Aspergillus niger [5] and against Candida albicans [13] were 37 µM (≈ 12.2 µg/mL) and over 151 µM, respectively. In addition, the “-logMIC” value amounted to 1.42 in the experiment with Escherichia coli [6]; 1.42 in the experiment with Candida albicans [7]; 1.12 in the experiment with Staphylococcus aureus [8]; 1.42 in the experiment with Bacillus subtilis [11]; 2.02 in the experiment with Aspergillus niger [12].
